In patent US10800815B2, “Kv1.3 potassium channel antagonists” (cgtx-Peptide Development GmbH, priority 2014, dated 2020):
Like-named read-outs stand apart in the source and are kept apart here.

Experiments:
[1] = target: T1, human Kv1.3 (hKv1.3) channel (Homo sapiens, UniProt P22001); assay: Planar patch clamp (Port-A-Patch) of Kv1.3 potassium currents in Sf 21 cells (Example 1); assay type: cell-based
T1 construct: expressed in transfected cells; host or cells: Sf21 (Spodoptera frugiperda) insect cells, baculovirus infection
Method: Potassium currents were measured by use of Spodoptera frugiperda (Sf 21) cells, which express the human Kv1.3 (hKv1.3) channel. The channel activity is induced upon membrane depolarization to voltages more positive than −40 mV. […] In Sf 21 cells hKv1.3 has an average current amplitude between 250 pA-5 nA at +40 mV.
1-3 days after infection potassium currents were recorded with the planar patch clamp technique, using the Port-A-Patch (Nanion Technologies GmbH). Ionic currents were activated by voltage steps to a depolarizing potential of +40 mV for 200 ms.
Sf 21 cells were cultured in Grace's insect cell medium supplemented with 10% FBS (Fetal Bovine Serum), 2 mM Glutamine, 1×Yeastolate (from 50× stock solution) and 0.1% Pluronic® F68 (BASF) to a cell density of 2-3×10^6 cells/ml.
External buffer: 160 mM NaCl • 4.5 mM KCl • 1 mM MgCl2 • 2 mM CaCl2 • 5 mM D-Glucose monohydrate • 10 mM HEPES/NaoH pH7.4
Internal buffer: 75 mM KCl • 10 mM NaCl • 70 mM K-Fluoride • 2 mM MgCl2 • 10 mM EGTA • 10 mM HEPES/KOH pH 7.2
Peptides were dissolved at 1 μg/μl in 20 mM NaPO4 buffer pH 8.2 (1 mg in 1 ml folding buffer) and dialysed against the same buffer 3×1 L, Float-a-Lyzer cut off 500 Da (Spectrapor) at room temperature.
HsTx 1 binding was tested at various concentrations of e.g. 100 pM, 1 nM, 10 nM, 50 nM, 100 nM, 500 nM, and 1 μM—depending on the tested channel. […]

hERG = target: T2, hERG (Homo sapiens, UniProt Q12809); assay: Patchliner automated patch clamp of hERG currents in HEK cells, two-point screening (Example 2); assay type: cell-based; settings: for Normalized Block of hERG current: steady state at end of application
T2 construct: expressed in transfected cells; host or cells: HEK cells stably expressing hERG
Method: To determine binding to Kv1.3, Jurkat cells endogenously expressing Kv1.3 were used. For binding to hERG, HEK cells stably expressing hERG were used.
Cell culture was performed using standard cell culture techniques. In brief, cells were grown on 10 cm culture dishes or T75 culture flasks in DMEM-based media. With a confluence of about 60-80%, cells were split every 2-3 days. For recordings on the Patchliner (Nanion), Jurkat cells were resuspended and then spinned in a centrifuge. Before spinning, HEK cells were treated with Trypsin, to detach them from the dish surface. After spinning, cells were resuspended in external recording buffer to a density of approximately 1-2 million cells per ml.
Internal recording solution: 50 mM KCl • 10 mM NaCl • 60 mM KF • 20 mM EGTA • 10 mM HEPES/KOH, pH 7.2, (Osm: ˜290 mOsm)
5 mM Mg-ATP and 0.3 mM Na-GTP were added fresh to the internal solution and pH adjusted to 7.2.
External recording buffer: 140 mM NaCl • 4 mM KCl • 1 mM MgCl2 • 2 mM CaCl2 • 5 mM D-Glucose monohydrate • 10 mM HEPES/NaOH pH 7.4, (Osm: ˜298 mOsm) Compounds
Electrophysiological recordings were performed with a Patchliner, recording up to 8 channels, simultaneously. The Patchliner is an automated patch clamp system utilizing borosilicate glass chips (NPC-16) for planar patch clamp, and operating via the PatchControlHT software. NPC-16 chips with a resistance of 3-5 MΩ for Jurkat cells and 2-3 MΩ for HEK cells were used for recordings. During recordings, cells were kept in a “cell hotel” where they were periodically pipetted up and down to maintain viability. […]
For pharmacology on hERG, peak amplitude at the 2nd −40 mV step (tail current) was calculated using online analysis functions in PatchMaster. The leak (calculated from the 1st step to −40 mV) was subtracted from this peak to calculate the true peak and these could be plotted as a function of time.
Values were exported to Excel to calculate concentration response curves in Igor. […] A Hill equation was fitted to estimate the IC50 for each compound and IC50 was calculated relative to maximum block. […]

[2] = target: T3, Kv1.3 channels expressed in Sf21 insect cells (Homo sapiens, UniProt P22001); assay: Stability ex vivo in human blood plasma, read out as IC50 on Kv1.3 (Example 3); assay type: in vitro ADME
T3 construct: expressed in transfected cells; host or cells: Sf21 insect cells, baculovirus infection
Method: The aim was to test the stability of the cgtx-544 peptide in blood plasma of mammals after different incubation times at room temperature (RT) and 37° C. Stability was defined as IC50 value of cgtx-544 after different incubation times at RT and 37° C. Blood plasma was prepared from fresh blood samples from healthy rats or humans. Heparin was added to fresh blood samples to prevent clogging. Plasma preparation was performed by centrifugation for 2 min at 2000×g at RT.
As the cgtx-544 peptide used in these experiments was incompletely folded, a higher IC50 than normal was determined.
To investigate the stability and activity in plasma the peptide was added to freshly prepared human and rat blood plasma at a final concentration of 2 μM. The samples were split into two aliquots and incubated at 37° C. and at room temperature (RT, 20° C.). For the electrophysiological analysis serial dilutions of the samples were prepared.

T2 sequence (Q12809 whole entry): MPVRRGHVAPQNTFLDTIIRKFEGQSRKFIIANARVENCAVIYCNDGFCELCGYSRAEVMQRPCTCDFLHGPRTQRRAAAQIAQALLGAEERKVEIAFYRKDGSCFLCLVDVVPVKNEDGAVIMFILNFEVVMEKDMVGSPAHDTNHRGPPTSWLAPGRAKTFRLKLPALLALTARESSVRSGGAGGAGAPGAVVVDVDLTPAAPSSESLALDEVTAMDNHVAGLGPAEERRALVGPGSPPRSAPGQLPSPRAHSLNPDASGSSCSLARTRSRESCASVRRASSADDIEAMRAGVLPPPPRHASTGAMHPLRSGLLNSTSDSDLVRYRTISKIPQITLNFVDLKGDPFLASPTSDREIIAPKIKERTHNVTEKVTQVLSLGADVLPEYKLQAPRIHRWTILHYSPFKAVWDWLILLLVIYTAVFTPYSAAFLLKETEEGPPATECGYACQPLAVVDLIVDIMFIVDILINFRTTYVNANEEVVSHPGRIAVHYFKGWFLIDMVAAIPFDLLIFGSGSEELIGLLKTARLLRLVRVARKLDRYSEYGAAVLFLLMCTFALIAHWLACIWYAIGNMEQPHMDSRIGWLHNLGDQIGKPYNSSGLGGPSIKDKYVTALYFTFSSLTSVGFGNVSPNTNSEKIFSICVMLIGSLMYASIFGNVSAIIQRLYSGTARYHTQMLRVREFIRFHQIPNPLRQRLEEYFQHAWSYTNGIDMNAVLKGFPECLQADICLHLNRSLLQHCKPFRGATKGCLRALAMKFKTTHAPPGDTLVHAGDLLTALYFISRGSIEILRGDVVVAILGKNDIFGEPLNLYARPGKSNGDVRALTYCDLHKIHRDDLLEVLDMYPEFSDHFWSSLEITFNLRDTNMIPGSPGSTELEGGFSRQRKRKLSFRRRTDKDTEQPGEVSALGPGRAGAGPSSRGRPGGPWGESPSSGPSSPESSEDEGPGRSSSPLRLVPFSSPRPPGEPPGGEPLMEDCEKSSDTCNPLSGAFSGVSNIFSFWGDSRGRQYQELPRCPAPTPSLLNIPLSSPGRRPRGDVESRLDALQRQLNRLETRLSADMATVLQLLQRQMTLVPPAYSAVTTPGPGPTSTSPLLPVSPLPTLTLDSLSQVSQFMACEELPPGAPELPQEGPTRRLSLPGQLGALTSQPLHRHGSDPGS
T3 sequence (P22001 whole entry): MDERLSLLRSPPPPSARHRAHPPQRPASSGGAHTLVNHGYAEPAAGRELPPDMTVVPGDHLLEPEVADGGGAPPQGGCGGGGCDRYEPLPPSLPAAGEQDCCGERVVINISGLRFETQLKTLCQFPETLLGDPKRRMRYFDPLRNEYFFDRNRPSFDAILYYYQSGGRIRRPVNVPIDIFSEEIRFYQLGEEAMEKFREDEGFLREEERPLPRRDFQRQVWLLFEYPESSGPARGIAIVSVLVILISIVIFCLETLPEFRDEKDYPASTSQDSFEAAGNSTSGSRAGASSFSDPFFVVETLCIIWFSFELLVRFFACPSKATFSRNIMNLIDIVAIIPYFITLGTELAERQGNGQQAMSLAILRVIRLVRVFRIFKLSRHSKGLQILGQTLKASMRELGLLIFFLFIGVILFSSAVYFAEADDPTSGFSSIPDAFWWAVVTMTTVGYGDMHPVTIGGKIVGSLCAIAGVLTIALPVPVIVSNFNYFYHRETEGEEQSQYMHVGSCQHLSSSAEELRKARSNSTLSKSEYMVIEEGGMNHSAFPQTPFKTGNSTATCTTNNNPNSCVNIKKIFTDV
T1 sequence (P22001 whole entry): as above

Q: What does the source list for CC[C@H](C)[C@H](NC(=O)[C@@H](N)[C@@H](C)O)C(=O)N[C@H](C(=O)N[C@@H](CC(N)=O)C(=O)N[C@H](C(=O)N[C@@H](CCCCN)C(=O)N[C@H]1CSSC[C@@H]2NC(=O)[C@H](CCCCN)NC(=O)CNC(=O)[C@H](Cc3ccc(O)cc3)NC(=O)[C@@H]3CCCN3C(=O)[C@@H]3CSSC[C@@H](C(=O)O)NC(=O)[C@H](CCCNC(=N)N)NC(=O)[C@H](CC(N)=O)NC(=O)[C@@H]4CSSC[C@H](NC(=O)[C@@H]5CCCN5C(=O)[C@@H]5CCCN5C(=O)[C@H](CC(C)C)NC(=O)[C@H](CSSC[C@H](NC(=O)[C@H](CCCCN)NC(=O)[C@H](CCCNC(=N)N)NC(=O)[C@H](CC(N)=O)NC(=O)[C@H](CCSC)NC2=O)C(=O)N[C@@H](CCCCN)C(=O)N4)NC(=O)[C@H](CCC(N)=O)NC(=O)[C@H](CCCCN)NC(=O)[C@@H]2CCCN2C(=O)[C@H](CO)NC(=O)[C@H]([C@@H](C)O)NC1=O)C(=O)N[C@@H](CCCCN)C(=O)N[C@@H](C)C(=O)N[C@@H](CCC(N)=O)C(=O)N[C@@H]([C@@H](C)O)C(=O)NCC(=O)N3)C(C)C)[C@@H](C)CC [Compound 7]?
A: selectivity for Kv1.3 vs. Kv1.1 compared to HsTx 1 [1]: higher selectivity; IC50 ([1]; read-out: IC50 on Kv1.3 before the start of the plasma stability experiment, incompletely folded peptide, n=5 cells, Sf21): 46.1 nM; Normalized Block of hERG current (hERG; 5 μM): 0.04; Normalized Block of hERG current (hERG; 10 μM): 0.07; effect on hERG current (hERG; hERG expressing HEK cells): only low effects; significant change in activity ([2]; 24 h, 37° C. and RT): could not be detected; activity after incubation in plasma ([2]; 48 h at RT): remained unchanged; activity after incubation in plasma ([2]; 14 days at 37° C.): no activity was detected; activity after incubation in plasma ([2]; 14 days at RT): unchanged activity; IC50 ([2]; read-out: IC50 on Kv1.3 after incubation in plasma, 48 h at 37° C.): 37.3 nM; IC50 ([2]; read-out: IC50 on Kv1.3 in plasma, time point 0 h): 20.9 nM
